{"source": "patent US6552068B1", "about": "“3-ethyl-, 3-propyl- or 3-butyl-chroman and thiochroman derivatives” (Chugai Seiyaku Kabushiki Kaisha, priority 1999, dated 2003)", "system": "ovariectomized mice administered with 17β-estradiol (increase in uterine weight)", "assay": "Anti-estrogenic activity (oral administration): inhibition of estradiol-induced increase in uterine weight", "type": "in vivo", "settings": "10 mg/kg p.o. once a day for 3 days, suspended in 5% arabic gum, ovariectomized ICR mice given 17β-estradiolbenzoate 0.1 μg/mouse s.c. for 3 days, uteri weighed 24 hours after last administration; for inhibition in vivo at 10 mg/kg: po", "method": "Test compounds were assayed for their oral anti-estrogenic activity in the following manner. In this experiment, the compounds prepared in Examples mentioned above were used as test compounds. As control compounds, the following two were used: a compound described in Example 7 of WO98/25916 and a compound corresponding to general formula (1) of the present invention, provided that R1 was a methyl group, i.e., 10-[(3RS,4RS)-7-hydroxy-3-(4-hydroxyphenyl)-3-methylthiochroman-4-yl]-2-(4,4,5,5,5-pentafluoropentyl)decanoic acid, which had been synthesized according to Reaction Schemes 1 to 7 mentioned above.\nIn this experiment, each of the test and control compounds was suspended in 5% arabic gum solution and orally administered for 3 days on a once-a-day basis. After 24 hours from the last administration, the test animals were sacrificed and the uteri were removed and weighed.", "data": [{"smiles": "CCC[C@@]1(c2ccc(O)cc2)COc2cc(O)ccc2[C@@H]1CCCCCCCCCC(CCCCC(F)(F)C(F)(F)F)C(=O)O", "note": "(mixture of isomers) [Example 44, 11-[(3RS,4RS)-7-hydroxy-3-(4-hydroxyphenyl)-3-propylchroman-4-yl]-2-(5,5,6,6,6-pentafluorohexyl)undecanoic acid]", "values": [{"measurement": "inhibition in vivo at 10 mg/kg", "result": 84, "unit": "%"}]}, {"smiles": "CC[C@]1(c2ccc(O)cc2)CSc2cc(O)ccc2[C@H]1CCCCCCCCCC(CCCC(F)(F)C(F)(F)F)C(=O)O", "note": "(mixture of isomers) [Example 20, 11-[(3RS,4RS)-3-ethyl-7-hydroxy-3-(4-hydroxyphenyl)thiochroman-4-yl]-2-(4,4,5,5,5-pentafluoropentyl)undecanoic acid]", "values": [{"measurement": "inhibition in vivo at 10 mg/kg", "result": 91, "unit": "%"}]}, {"smiles": "CC[C@@]1(c2ccc(O)cc2)CSc2cc(O)ccc2[C@@H]1CCCCCCCCC(CCC(F)(F)C(F)(F)C(F)(F)C(F)(F)F)C(=O)O", "note": "(mixture of isomers) [Example 31, 10-[(3RS,4RS)-3-ethyl-7-hydroxy-3-(4-hydroxyphenyl)thiochroman-4-yl]-2-(3,3,4,4,5,5,6,6,6-nonafluorohexyl)decanoic acid]", "values": [{"measurement": "inhibition in vivo at 10 mg/kg", "result": 85, "unit": "%"}]}, {"smiles": "CC[C@@]1(c2ccc(O)cc2)CSc2cc(O)ccc2[C@@H]1CCCCCCCCCC(CCC(F)(F)C(F)(F)C(F)(F)C(F)(F)F)C(=O)O", "note": "(mixture of isomers) [Example 30, 11-[(3RS,4RS)-3-ethyl-7-hydroxy-3-(4-hydroxyphenyl)thiochroman-4-yl]-2-(3,3,4,4,5,5,6,6,6-nonafluorohexyl)undecanoic acid]", "values": [{"measurement": "inhibition in vivo at 10 mg/kg", "result": 89, "unit": "%"}]}, {"smiles": "CCC[C@@]1(c2ccc(O)cc2)COc2cc(O)ccc2[C@@H]1CCCCCCCCC(CCCC(F)(F)C(F)(F)C(F)(F)C(F)(F)F)C(=O)O", "note": "(mixture of isomers) [Example 42, 10-[(3RS,4RS)-7-hydroxy-3-(4-hydroxyphenyl)-3-propylchroman-4-yl]-2-(4,4,5,5,6,6,7,7,7-nonafluoroheptyl)decanoic acid]", "values": [{"measurement": "inhibition in vivo at 10 mg/kg", "result": 95, "unit": "%"}]}, {"smiles": "CCC[C@@]1(c2ccc(O)cc2)COc2cc(O)ccc2[C@@H]1CCCCCCCCCC(CCCC(F)(F)C(F)(F)C(F)(F)C(F)(F)F)C(=O)O", "note": "(mixture of isomers) [Example 46, 11-[(3RS,4RS)-7-hydroxy-3-(4-hydroxyphenyl)-3-propylchroman-4-yl]-2-(4,4,5,5,6,6,7,7,7-nonafluoroheptyl)undecanoic acid]", "values": [{"measurement": "inhibition in vivo at 10 mg/kg", "result": 94, "unit": "%"}]}, {"smiles": "CCC[C@@]1(c2ccc(O)cc2)COc2cc(O)ccc2[C@@H]1CCCCCCCCCC(CCC(F)(F)C(F)(F)C(F)(F)C(F)(F)F)C(=O)O", "note": "(mixture of isomers) [Example 45, 11-[(3RS,4RS)-7-hydroxy-3-(4-hydroxyphenyl)-3-propylchroman-4-yl]-2-(3,3,4,4,5,5,6,6,6-nonafluorohexyl)undecanoic acid]", "values": [{"measurement": "inhibition in vivo at 10 mg/kg", "result": 85, "unit": "%"}]}, {"smiles": "CCC[C@@]1(c2ccc(O)cc2)CSc2cc(O)ccc2[C@@H]1CCCCCCCCC(CCCC(F)(F)C(F)(F)F)C(=O)O", "note": "(mixture of isomers) [Example 29, 10-[(3RS,4RS)-7-hydroxy-3-(4-hydroxyphenyl)-3-propylthiochroman-4-yl]-2-(4,4,5,5,5-pentafluoropentyl)decanoic acid]", "values": [{"measurement": "inhibition in vivo at 10 mg/kg", "result": 91, "unit": "%"}]}, {"smiles": "CC[C@@]1(c2ccc(O)cc2)COc2cc(O)ccc2[C@@H]1CCCCCCCCCC(CCC(F)(F)C(F)(F)C(F)(F)C(F)(F)F)C(=O)O", "note": "(mixture of isomers) [Example 32, 11-[(3RS,4RS)-3-ethyl-7-hydroxy-3-(4-hydroxyphenyl)chroman-4-yl]-2-(3,3,4,4,5,5,6,6,6-nonafluorohexyl)undecanoic acid]", "values": [{"measurement": "inhibition in vivo at 10 mg/kg", "result": 82, "unit": "%"}]}, {"smiles": "CCC[C@@]1(c2ccc(O)cc2)CSc2cc(O)ccc2[C@@H]1CCCCCCCCCC(CCC(F)(F)C(F)(F)C(F)(F)C(F)(F)F)C(=O)O", "note": "(mixture of isomers) [Example 39, 11-[(3RS,4RS)-7-hydroxy-3-(4-hydroxyphenyl)-3-propylthiochroman-4-yl]-2-(3,3,4,4,5,5,6,6,6-nonafluorohexyl)undecanoic acid]", "values": [{"measurement": "inhibition in vivo at 10 mg/kg", "result": 84, "unit": "%"}]}, {"smiles": "CC[C@@]1(c2ccc(O)cc2)COc2cc(O)ccc2[C@@H]1CCCCCCCCC(CCCC(F)(F)C(F)(F)C(F)(F)C(F)(F)F)C(=O)O", "note": "(mixture of isomers) [Example 34, 10-[(3RS,4RS)-3-ethyl-7-hydroxy-3-(4-hydroxyphenyl)chroman-4-yl]-2-(4,4,5,5,6,6,7,7,7-nonafluoroheptyl)decanoic acid]", "values": [{"measurement": "inhibition in vivo at 10 mg/kg", "result": 90, "unit": "%"}]}, {"smiles": "CCCC[C@@]1(c2ccc(O)cc2)COc2cc(O)ccc2[C@@H]1CCCCCCCCC(CCCC(F)(F)C(F)(F)C(F)(F)C(F)(F)F)C(=O)O", "note": "(mixture of isomers) [Example 47, 10-[(3RS,4RS)-3-butyl-7-hydroxy-3-(4-hydroxyphenyl)chroman-4-yl]-2-(4,4,5,5,6,6,7,7,7-nonafluoroheptyl)decanoic acid]", "values": [{"measurement": "inhibition in vivo at 10 mg/kg", "result": 89, "unit": "%"}]}, {"smiles": "CCC[C@@]1(c2ccc(O)cc2)COc2cc(O)ccc2[C@@H]1CCCCCCCCC(CCC(F)(F)C(F)(F)C(F)(F)C(F)(F)F)C(=O)O", "note": "(mixture of isomers) [Example 41, 10-[(3RS,4RS)-7-hydroxy-3-(4-hydroxyphenyl)-3-propylchroman-4-yl]-2-(3,3,4,4,5,5,6,6,6-nonafluorohexyl)decanoic acid]", "values": [{"measurement": "inhibition in vivo at 10 mg/kg", "result": 89, "unit": "%"}]}, {"smiles": "CC[C@@]1(c2ccc(O)cc2)COc2cc(O)ccc2[C@@H]1CCCCCCCCCC(CCCC(F)(F)C(F)(F)C(F)(F)C(F)(F)F)C(=O)O", "note": "(mixture of isomers) [Example 35, 11-[(3RS,4RS)-3-ethyl-7-hydroxy-3-(4-hydroxyphenyl)chroman-4-yl]-2-(4,4,5,5,6,6,7,7,7-nonafluoroheptyl)undecanoic acid]", "values": [{"measurement": "inhibition in vivo at 10 mg/kg", "result": 93, "unit": "%"}]}, {"smiles": "CC[C@]1(c2ccc(O)cc2)CSc2cc(O)ccc2[C@H]1CCCCCCCCC(CCCCC(F)(F)C(F)(F)F)C(=O)O", "note": "(mixture of isomers) [Example 15, 10-[(3RS,4RS)-3-ethyl-7-hydroxy-3-(4-hydroxyphenyl)thiochroman-4-yl]-2-(5,5,6,6,6-pentafluorohexyl)decanoic acid]", "values": [{"measurement": "inhibition in vivo at 10 mg/kg", "result": 92, "unit": "%"}]}, {"smiles": "CCC[C@@]1(c2ccc(O)cc2)COc2cc(O)ccc2[C@@H]1CCCCCCCCCC(CCCC(F)(F)C(F)(F)F)C(=O)O", "note": "(mixture of isomers) [Example 43, 11-[(3RS,4RS)-7-hydroxy-3-(4-hydroxyphenyl)-3-propylchroman-4-yl]-2-(4,4,5,5,5-pentafluoropentyl)undecanoic acid]", "values": [{"measurement": "inhibition in vivo at 10 mg/kg", "result": 85, "unit": "%"}]}, {"smiles": "C[C@@]1(c2ccc(O)cc2)CSc2cc(O)ccc2[C@@H]1CCCCCCCCC(CCCC(F)(F)C(F)(F)F)C(=O)O", "note": "(mixture of isomers) [10-[(3RS,4RS)-7-hydroxy-3-(4-hydroxyphenyl)-3-methylthiochroman-4-yl]-2-(4,4,5,5,5-pentafluoropentyl)decanoic acid, reference compound]", "values": [{"measurement": "inhibition in vivo at 10 mg/kg", "result": 75, "unit": "%"}]}, {"smiles": "CC[C@]1(c2ccc(O)cc2)CSc2cc(O)ccc2[C@H]1CCCCCCCCC(CCCCCC(F)(F)C(F)(F)F)C(=O)O", "note": "(mixture of isomers) [Example 14, 10-[(3RS,4RS)-3-ethyl-7-hydroxy-3-(4-hydroxyphenyl)thiochroman-4-yl]-2-(6,6,7,7,7-pentafluoroheptyl)decanoic acid]", "values": [{"measurement": "inhibition in vivo at 10 mg/kg", "result": 81, "unit": "%"}]}, {"smiles": "CC[C@@]1(c2ccc(O)cc2)COc2cc(O)ccc2[C@@H]1CCCCCCCCCC(CCCCCC(F)(F)C(F)(F)F)C(=O)O", "note": "(mixture of isomers) [Example 22, 11-[(3RS,4RS)-3-ethyl-7-hydroxy-3-(4-hydroxyphenyl)chroman-4-yl]-2-(6,6,7,7,7-pentafluoroheptyl)undecanoic acid]", "values": [{"measurement": "inhibition in vivo at 10 mg/kg", "result": 83, "unit": "%"}]}, {"smiles": "CCC[C@@]1(c2ccc(O)cc2)CSc2cc(O)ccc2[C@@H]1CCCCCCCCCC(CCCC(F)(F)C(F)(F)F)C(=O)O", "note": "(mixture of isomers) [Example 38, 11-[(3RS,4RS)-7-hydroxy-3-(4-hydroxyphenyl)-3-propylthiochroman-4-yl]-2-(4,4,5,5,5,-pentafluoropentyl)undecanoic acid]", "values": [{"measurement": "Inhibition (%) of the increase in uterine weight", "result": 84, "unit": "%"}]}, {"smiles": "CCC[C@@]1(c2ccc(O)cc2)COc2cc(O)ccc2[C@@H]1CCCCCCCCC(CCCCC(F)(F)C(F)(F)F)C(=O)O", "note": "(mixture of isomers) [Example 40, 10-[(3RS,4RS)-7-hydroxy-3-(4-hydroxyphenyl)-3-propylchroman-4-yl]-2-(5,5,6,6,6-pentafluorohexyl)decanoic acid]", "values": [{"measurement": "inhibition in vivo at 10 mg/kg", "result": 82, "unit": "%"}]}, {"smiles": "CCC[C@@]1(c2ccc(O)cc2)CSc2cc(O)ccc2[C@@H]1CCCCCCCCC(CCCCC(F)(F)C(F)(F)F)C(=O)O", "note": "(mixture of isomers) [Example 36, 10-[(3RS,4RS)-7-hydroxy-3-(4-hydroxyphenyl)-3-propylthiochroman-4-yl]-2-(5,5,6,6,6-pentafluorohexyl)decanoic acid]", "values": [{"measurement": "inhibition in vivo at 10 mg/kg", "result": 89, "unit": "%"}]}, {"smiles": "CC[C@]1(c2ccc(O)cc2)CSc2cc(O)ccc2[C@H]1CCCCCCCCC(CCCC(F)(F)C(F)(F)F)C(=O)O", "note": "(mixture of isomers) [Example 16, 10-[(3RS,4RS)-3-ethyl-7-hydroxy-3-(4-hydroxyphenyl)thiochroman-4-yl]-2-(4,4,5,5,5-pentafluoropentyl)decanoic acid]", "values": [{"measurement": "inhibition in vivo at 10 mg/kg", "result": 96, "unit": "%"}]}]}
